Experimental data reported in ChEMBL document CHEMBL4477245, “Development of a Series of (1-Benzyl-3-(6-methoxypyrimidin-3-yl)-5-(trifluoromethoxy)-1H-indol-2-yl)methanols as Selective Protease Activated Receptor 4 (PAR4) Antagonists with in Vivo Utility and Activity Against γ-Thrombin” (J Med Chem, 2016).
Calls of active or inactive are those of the source. No cut-off for these calls is given here.

System: not listed separately
Assay: Unbound protein binding in human plasma
Assay type: ADME, cell-free
Settings: not given

PB | SMILES
Unstable | CCOC(=O)c1ccc(-c2nn(Cc3ccccc3)c3ccccc23)cc1
Unstable | CCOC(=O)c1ccc(-c2cn(Cc3ccccc3)c3ccccc23)cc1

Molecular target: T1, Proteinase-activated receptor 4 (Homo sapiens) (UniProt Q96RI0)
T1 sequence (whole entry): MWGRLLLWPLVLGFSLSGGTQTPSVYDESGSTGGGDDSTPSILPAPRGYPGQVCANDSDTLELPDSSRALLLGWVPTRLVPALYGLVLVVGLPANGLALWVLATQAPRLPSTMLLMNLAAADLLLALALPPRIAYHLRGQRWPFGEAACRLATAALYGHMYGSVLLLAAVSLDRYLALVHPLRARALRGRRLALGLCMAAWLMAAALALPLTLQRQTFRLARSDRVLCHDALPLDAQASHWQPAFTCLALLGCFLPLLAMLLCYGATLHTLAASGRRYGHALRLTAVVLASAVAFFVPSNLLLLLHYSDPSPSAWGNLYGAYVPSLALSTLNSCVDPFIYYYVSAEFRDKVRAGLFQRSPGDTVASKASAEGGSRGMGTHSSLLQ
Assay: Antagonist activity against PAR4 activating peptide domain in human platelets assessed as inhibition of alpha2bbeta3 activation level at 10 uM by PAC1 binding assay
Settings: not given

SMILES | %max
COc1ccc(-c2c(CO)n(C)c3ccc(C(F)(F)F)cc23)cn1 | 106%
OCc1c(-c2cncnc2)c2cc(OC(F)(F)F)ccc2n1Cc1ccc(F)cc1F | 96.1%
OCc1c(-c2ccncc2)c2cc(OC(F)(F)F)ccc2n1Cc1ccccc1Cl | 101%
COc1ncc(-c2c(CO)n(Cc3ccc(F)cc3F)c3ccc(OC(F)(F)F)cc23)cn1 | 53.6%
COc1ccc(-c2c(CO)n(Cc3cccc(Cl)c3)c3ccc(OC(F)(F)F)cc23)cn1 | 95.5%
COc1cccc(Cn2c(CO)c(-c3ccc(OC)nc3)c3cc(C(F)(F)F)ccc32)c1 | 108%
COc1ccc(-c2c(CO)n(Cc3ccccc3)c3ccc(OC(F)(F)F)cc23)cn1 | 53.4%
COc1ccc(-c2c(CO)n(Cc3ccccc3F)c3ccc(OC(F)(F)F)cc23)cn1 | 89%
COc1ccc(-c2c(CO)n(Cc3cccc(F)c3)c3ccc(OC(F)(F)F)cc23)cn1 | 80.6%

More lines, now with the values ahead:

%max | SMILES
19.7% | COc1ccc(-c2c(CO)n(Cc3ccc(F)cc3F)c3ccc(OC(F)(F)F)cc23)cn1
35.4% | CCOc1ncc(-c2c(CO)n(Cc3ccccc3Cl)c3ccc(OC(F)(F)F)cc23)cn1
19.7% | COc1ccc(-c2c(CO)n(Cc3cccc(C(F)(F)F)c3)c3ccc(OC(F)(F)F)cc23)cn1
21.3% | COc1ccc2c(-c3cnc(SC)nc3)c(CO)n(Cc3ccccc3Cl)c2c1
19.7% | CCOc1ccc2c(-c3ccc(OC)nc3)c(CO)n(Cc3ccccc3Cl)c2c1
27.1% | COc1ccc(-c2c(CO)n(Cc3cccc(Br)c3)c3ccc(OC(F)(F)F)cc23)cn1
7.95% | COc1ncc(-c2c(CO)n(Cc3ccccc3Cl)c3ccc(OC(F)(F)F)cc23)cn1
15.6% | CSc1ncc(-c2c(CO)n(Cc3ccc(F)cc3F)c3ccc(OC(F)(F)F)cc23)cn1
4.31% | COc1ccc2c(-c3ccc(OC)nc3)c(CO)n(Cc3ccccc3Cl)c2c1
12.3% | COc1ccc(-c2c(CO)n(Cc3ccccc3Cl)c3cc(OC(F)(F)F)ccc23)cn1
5.57% | CSc1ncc(-c2c(CO)n(Cc3ccccc3Cl)c3cc(OC(F)(F)F)ccc23)cn1
3.2% | COc1nn2cc(-c3c(CO)n(Cc4ccccc4Cl)c4ccc(OC(F)(F)F)cc34)nc2s1

Molecular target: T2, Proteinase-activated receptor 4 (Homo sapiens, UniProt Q96RI0)
T2 sequence (Q96RI0 whole entry): T1 sequence (whole entry)
Assay: Antagonist activity against PAR4 activating peptide domain in human platelets assessed as inhibition of alpha2bbeta3 activation level by PAC1 binding assay
Settings: not given

SMILES | IC50
COc1ccc(-c2c(CO)n(C)c3ccc(C(F)(F)F)cc23)cn1 | > 10 µM
OCc1c(-c2cncnc2)c2cc(OC(F)(F)F)ccc2n1Cc1ccc(F)cc1F | > 10 µM
OCc1c(-c2ccncc2)c2cc(OC(F)(F)F)ccc2n1Cc1ccccc1Cl | > 10 µM
COc1ccc(-c2c(CO)n(Cc3cccc(Cl)c3)c3ccc(OC(F)(F)F)cc23)cn1 | > 10 µM
COc1cccc(Cn2c(CO)c(-c3ccc(OC)nc3)c3cc(C(F)(F)F)ccc32)c1 | > 10 µM
COc1ccc(-c2c(CO)n(Cc3ccccc3)c3ccc(OC(F)(F)F)cc23)cn1 | > 10 µM
COc1ccc(-c2c(CO)n(Cc3ccccc3F)c3ccc(OC(F)(F)F)cc23)cn1 | > 10 µM
COc1ccc(-c2c(CO)n(Cc3cccc(F)c3)c3ccc(OC(F)(F)F)cc23)cn1 | > 10 µM

Results, then the compound that gave them:

IC50 | SMILES
5.11 µM | COc1ccc(-c2c(CO)n(Cc3ccc(F)cc3F)c3ccc(OC(F)(F)F)cc23)cn1
4.91 µM | CCOc1ncc(-c2c(CO)n(Cc3ccccc3Cl)c3ccc(OC(F)(F)F)cc23)cn1
4.82 µM | COc1ccc(-c2c(CO)n(Cc3cccc(C(F)(F)F)c3)c3ccc(OC(F)(F)F)cc23)cn1
4.15 µM | COc1ccc2c(-c3cnc(SC)nc3)c(CO)n(Cc3ccccc3Cl)c2c1
3.76 µM | CCOc1ccc2c(-c3ccc(OC)nc3)c(CO)n(Cc3ccccc3Cl)c2c1
2.19 µM | COc1ccc(-c2c(CO)n(Cc3cccc(Br)c3)c3ccc(OC(F)(F)F)cc23)cn1
1.5 µM | COc1ncc(-c2c(CO)n(Cc3ccccc3Cl)c3ccc(OC(F)(F)F)cc23)cn1
1.49 µM | CSc1ncc(-c2c(CO)n(Cc3ccc(F)cc3F)c3ccc(OC(F)(F)F)cc23)cn1
1.39 µM | COc1ccc2c(-c3ccc(OC)nc3)c(CO)n(Cc3ccccc3Cl)c2c1
0.93 µM | COc1ccc(-c2c(CO)n(Cc3ccccc3Cl)c3cc(OC(F)(F)F)ccc23)cn1
0.21 µM | CSc1ncc(-c2c(CO)n(Cc3ccccc3Cl)c3cc(OC(F)(F)F)ccc23)cn1
0.18 µM | COc1nn2cc(-c3c(CO)n(Cc4ccccc4Cl)c4ccc(OC(F)(F)F)cc34)nc2s1

Molecular target: T3, Proteinase-activated receptor 1 (Homo sapiens, UniProt P25116)
T3 sequence (P25116 whole entry): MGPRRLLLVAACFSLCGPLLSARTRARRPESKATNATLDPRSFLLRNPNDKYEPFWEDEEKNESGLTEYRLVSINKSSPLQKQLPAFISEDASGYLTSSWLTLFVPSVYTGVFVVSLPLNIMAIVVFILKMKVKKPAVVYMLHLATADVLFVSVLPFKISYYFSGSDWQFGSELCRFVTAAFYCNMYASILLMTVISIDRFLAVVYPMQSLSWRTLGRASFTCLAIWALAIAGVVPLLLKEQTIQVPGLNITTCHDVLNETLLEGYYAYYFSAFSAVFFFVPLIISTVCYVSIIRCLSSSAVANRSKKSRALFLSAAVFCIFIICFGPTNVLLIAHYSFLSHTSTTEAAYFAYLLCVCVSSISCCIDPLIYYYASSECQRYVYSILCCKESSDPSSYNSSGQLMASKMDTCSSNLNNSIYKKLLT
Assay: Inhibition of PAR1 (unknown origin)
Settings: not given

IC50 | SMILES
> 30 µM | CSc1ncc(-c2c(CO)n(Cc3ccccc3Cl)c3cc(OC(F)(F)F)ccc23)cn1
> 30 µM | COc1nn2cc(-c3c(CO)n(Cc4ccccc4Cl)c4ccc(OC(F)(F)F)cc34)nc2s1
> 30 µM | COc1ccc(-c2c(CO)n(Cc3ccccc3Cl)c3cc(OC(F)(F)F)ccc23)cn1
> 30 µM | COc1ccc(-c2c(CO)n(Cc3ccc(F)cc3F)c3ccc(OC(F)(F)F)cc23)cn1

Molecular target: T2, Proteinase-activated receptor 4
Assay: Antagonist activity against PAR4 activating peptide domain in human platelets assessed as inhibition of P-selectin activation
Settings: not given

IC50 | SMILES
0.132 µM | COc1nn2cc(-c3c(CO)n(Cc4ccccc4Cl)c4ccc(OC(F)(F)F)cc34)nc2s1

Molecular target: T1, Proteinase-activated receptor 4 (Homo sapiens)
Assay: Mixed competitive/non-competitive inhibition of PAR4 activating peptide domain in human platelets assessed as inhibition of alpha2bbeta3 activation level by PAC1 binding assay based by Schild analysis
Settings: not given

inhibition | SMILES
Active | COc1ccc(-c2c(CO)n(Cc3ccccc3Cl)c3ccc(OC(F)(F)F)cc23)cn1
Active | COc1nn2cc(-c3c(CO)n(Cc4ccccc4Cl)c4ccc(OC(F)(F)F)cc34)nc2s1

System: not listed separately
Assay: Unbound protein binding in rat plasma at 5 uM after 4 hrs by LC/MS/MS analysis
Settings: not given

Fu | SMILES
0.003 | COc1nn2cc(-c3c(CO)n(Cc4ccccc4Cl)c4ccc(OC(F)(F)F)cc34)nc2s1

System: not listed separately
Assay: Unbound protein binding in human plasma at 5 uM after 4 hrs by LC/MS/MS analysis
Settings: not given

Fu | SMILES
0.004 | COc1nn2cc(-c3c(CO)n(Cc4ccccc4Cl)c4ccc(OC(F)(F)F)cc34)nc2s1

System: not listed separately
Assay: Volume of distribution in steady state in Sprague-Dawley rat at 0.2 mg/kg, iv through cassette dosing up to 6 hrs by LC-MS/MS method
Settings: in vivo

Vdss | SMILES
21.1 L/kg | COc1nn2cc(-c3c(CO)n(Cc4ccccc4Cl)c4ccc(OC(F)(F)F)cc34)nc2s1

System: not listed separately
Assay: Half life in Sprague-Dawley rat at 0.2 mg/kg, iv through cassette dosing up to 6 hrs by LC-MS/MS method
Settings: in vivo

t1/2 | SMILES
6.1 h | COc1nn2cc(-c3c(CO)n(Cc4ccccc4Cl)c4ccc(OC(F)(F)F)cc34)nc2s1

Molecular target: T2, Proteinase-activated receptor 4
Assay: Antagonist activity at PAR4 TL domain in human platelets assessed as gamma-thrombin-induced PAC1 binding response preincubated for 20 mins followed by agonist addition for 20 mins by FITC based flow cytometric analysis
Settings: not given

IC50 | SMILES
4.35 µM | COc1nn2cc(-c3c(CO)n(Cc4ccccc4Cl)c4ccc(OC(F)(F)F)cc34)nc2s1

Molecular target: T1, Proteinase-activated receptor 4 (Homo sapiens)
Assay: Antagonist activity at PAR4 TL domain in human platelets assessed as gamma-thrombin-induced PAC1 binding response at 10 uM preincubated for 20 mins followed by agonist addition for 20 mins by FITC based flow cytometric analysis
Settings: not given

inhibition | SMILES
39.4% | COc1nn2cc(-c3c(CO)n(Cc4ccccc4Cl)c4ccc(OC(F)(F)F)cc34)nc2s1

System: not listed separately
Assay: Unbound protein binding in rat plasma
Assay type: ADME, cell-free
Settings: not given

PB | SMILES
Unstable | CCOC(=O)c1ccc(-c2nn(Cc3ccccc3)c3ccccc23)cc1
Unstable | CCOC(=O)c1ccc(-c2cn(Cc3ccccc3)c3ccccc23)cc1

Molecular target: T4, Cytochrome P450 1A2 (Homo sapiens, UniProt P05177)
T4 sequence (P05177 whole entry): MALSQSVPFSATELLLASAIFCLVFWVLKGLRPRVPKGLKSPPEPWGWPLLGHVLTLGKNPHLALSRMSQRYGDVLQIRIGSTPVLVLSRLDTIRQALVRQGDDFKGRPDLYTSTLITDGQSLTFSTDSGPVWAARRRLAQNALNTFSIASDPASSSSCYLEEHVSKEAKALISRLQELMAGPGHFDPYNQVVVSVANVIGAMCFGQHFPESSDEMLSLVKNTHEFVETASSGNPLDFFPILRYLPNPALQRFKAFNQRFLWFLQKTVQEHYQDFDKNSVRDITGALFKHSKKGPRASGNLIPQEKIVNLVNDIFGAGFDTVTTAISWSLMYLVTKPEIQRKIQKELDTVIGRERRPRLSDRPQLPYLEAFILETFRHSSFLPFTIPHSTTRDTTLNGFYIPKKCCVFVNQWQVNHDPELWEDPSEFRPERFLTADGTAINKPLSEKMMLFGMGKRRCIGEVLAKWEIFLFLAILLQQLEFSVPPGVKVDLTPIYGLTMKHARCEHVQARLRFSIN
Assay: Inhibition of CYP1A2 in human liver microsomes incubated for 15 mins using phenacetin substrate in presence of NADPH by LC-MS/MS method
Settings: not given

IC50 | SMILES
> 30 µM | COc1nn2cc(-c3c(CO)n(Cc4ccccc4Cl)c4ccc(OC(F)(F)F)cc34)nc2s1

Molecular target: Cytochrome P450 2C9 (Homo sapiens, UniProt P11712)
Sequence (P11712 whole entry): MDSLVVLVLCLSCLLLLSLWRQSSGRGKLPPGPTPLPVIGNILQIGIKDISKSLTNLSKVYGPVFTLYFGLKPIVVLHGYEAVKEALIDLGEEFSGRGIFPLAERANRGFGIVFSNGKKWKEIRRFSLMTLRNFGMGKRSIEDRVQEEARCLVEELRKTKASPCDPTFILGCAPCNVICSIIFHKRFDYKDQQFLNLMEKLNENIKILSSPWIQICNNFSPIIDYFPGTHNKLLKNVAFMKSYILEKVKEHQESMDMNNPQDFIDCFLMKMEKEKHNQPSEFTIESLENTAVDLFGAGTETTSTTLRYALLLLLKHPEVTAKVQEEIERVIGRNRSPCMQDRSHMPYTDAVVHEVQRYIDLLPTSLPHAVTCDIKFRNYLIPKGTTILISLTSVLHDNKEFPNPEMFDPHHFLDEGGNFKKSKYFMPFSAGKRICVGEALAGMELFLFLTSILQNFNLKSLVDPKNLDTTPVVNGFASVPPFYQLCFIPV
Assay: Inhibition of CYP2C9 in human liver microsomes incubated for 15 mins using diclofenac substrate in presence of NADPH by LC-MS/MS method
Settings: not given

IC50 | SMILES
11.2 µM | COc1nn2cc(-c3c(CO)n(Cc4ccccc4Cl)c4ccc(OC(F)(F)F)cc34)nc2s1

Molecular target: Cytochrome P450 2D6 (Homo sapiens, UniProt P10635)
Sequence (P10635 whole entry): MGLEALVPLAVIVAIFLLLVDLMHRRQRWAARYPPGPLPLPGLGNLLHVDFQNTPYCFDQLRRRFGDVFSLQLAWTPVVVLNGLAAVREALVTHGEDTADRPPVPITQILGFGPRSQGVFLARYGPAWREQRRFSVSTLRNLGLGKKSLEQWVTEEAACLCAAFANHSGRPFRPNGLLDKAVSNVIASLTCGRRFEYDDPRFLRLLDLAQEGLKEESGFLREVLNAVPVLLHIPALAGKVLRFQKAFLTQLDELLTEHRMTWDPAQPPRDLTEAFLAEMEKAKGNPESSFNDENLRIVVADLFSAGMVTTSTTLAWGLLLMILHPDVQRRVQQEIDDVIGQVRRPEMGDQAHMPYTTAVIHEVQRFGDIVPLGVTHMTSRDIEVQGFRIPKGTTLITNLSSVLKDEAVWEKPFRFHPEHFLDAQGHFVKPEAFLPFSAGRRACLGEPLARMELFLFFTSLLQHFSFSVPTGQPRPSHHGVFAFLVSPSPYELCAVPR
Assay: Inhibition of CYP2D6 in human liver microsomes incubated for 15 mins using dextromethorphan substrate in presence of NADPH by LC-MS/MS method
Settings: not given

IC50 | SMILES
1.2 µM | COc1nn2cc(-c3c(CO)n(Cc4ccccc4Cl)c4ccc(OC(F)(F)F)cc34)nc2s1

Molecular target: Cytochrome P450 3A4 (Homo sapiens, UniProt P08684)
Sequence (P08684 whole entry): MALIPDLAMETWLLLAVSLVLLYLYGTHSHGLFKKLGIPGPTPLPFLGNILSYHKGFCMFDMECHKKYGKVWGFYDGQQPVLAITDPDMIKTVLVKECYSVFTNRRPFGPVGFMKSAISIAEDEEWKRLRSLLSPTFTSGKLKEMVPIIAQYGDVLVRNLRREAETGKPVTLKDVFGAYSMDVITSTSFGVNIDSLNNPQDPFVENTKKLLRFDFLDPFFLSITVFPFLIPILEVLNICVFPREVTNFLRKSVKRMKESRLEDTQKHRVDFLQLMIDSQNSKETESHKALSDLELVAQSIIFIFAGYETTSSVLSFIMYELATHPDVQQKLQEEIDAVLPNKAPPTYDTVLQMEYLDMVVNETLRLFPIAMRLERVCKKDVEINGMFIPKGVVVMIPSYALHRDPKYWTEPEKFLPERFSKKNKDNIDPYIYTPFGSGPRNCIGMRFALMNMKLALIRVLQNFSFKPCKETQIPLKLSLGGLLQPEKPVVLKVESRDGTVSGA
Assay: Inhibition of CYP3A4 in human liver microsomes incubated for 15 mins using midazolam substrate in presence of NADPH by LC-MS/MS method
Settings: not given

IC50 | SMILES
> 30 µM | COc1nn2cc(-c3c(CO)n(Cc4ccccc4Cl)c4ccc(OC(F)(F)F)cc34)nc2s1
